Assay results from patent publication US6737383B1, “Herbicidal oxadiazolidines” (priority 1999, dated 2004).

Key:
wild oat = assay: Test E wild oat; assay type: in vivo, Avena fatua; details: Preemergence; for Wild oat plant response rating (0 to 100 scale): Rate 250 g/ha
green foxtail = assay: Test E green foxtail; assay type: in vivo, Setaria viridis; details: Preemergence; for Green foxtail plant response rating (0 to 100 scale): Rate 250 g/ha
blackgrass = assay: Test E blackgrass; assay type: in vivo, Alopecurus myosuroides; details: Preemergence; for Blackgrass plant response rating (0 to 100 scale): Rate 250 g/ha
bamyardgrass = assay: Test B flood test barnyardgrass; assay type: in vivo, Echinochloa crus-galli
In short: (§1)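 Flood test on plants grown to the 2-leaf stage; treated plants kept in greenhouse twelve to sixteen days, then visually rated against controls on a 0 (no effect) to 10 (complete control) scale.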

winter wheat [1] = assay: Test E winter wheat; assay type: in vivo, Triticum aestivum; details: Postemergence; for Wheat (winter) plant response rating: Rate 250 g/ha
In short: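 Greenhouse test: compounds in non-phytotoxic solvent with surfactant; for postemergence, sprayed on plants at 1- to 4-leaf stage grown in 60:40 sandy loam/potting mix. Injury rated visually against untreated controls after about 21 to 28 days.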

winter barley = assay: Test E winter barley; assay type: in vivo, Hordeum vulgare; details: Preemergence; for Barley (winter) plant response rating (0 to 100 scale): Rate 250 g/ha
rice = assay: Test B flood test rice; assay type: in vivo, Oryza sativa
In short: as §1

bedstraw = assay: Test B pre/postemergence bedstraw; assay type: in vivo, Galium aparine
In short: (§2)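 Response is a visual 0-to-10 score relative to untreated plants, where 0 means no effect and 10 means complete control, taken twelve to sixteen days after application. Treatments went onto soil at planting and onto foliage of 1- to 4-leaf plants, using a surfactant-containing non-phytotoxic solvent.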

winter wheat [2] = assay: Test E winter wheat; assay type: in vivo, Triticum aestivum; details: Preemergence; for Wheat (winter) plant response rating (0 to 100 scale): Rate 250 g/ha
pigweed = assay: Test B pre/postemergence pigweed; assay type: in vivo, Amaranthus retroflexus
In short: as §2

Italian ryegrass = assay: Test E Italian ryegrass; assay type: in vivo, Lolium multiflorum; details: Preemergence; for I. Ryegrass plant response rating (0 to 100 scale): Rate 250 g/ha
[3] = Rate 500 g/ha, 0 to 100 scale where 0 is no effect and 100 is complete control
[4] = Rate 1000 g/ha, 0 to 100 scale, 0 no effect, 100 complete control
[5] = Pre-emergence, Rate 1000 g/ha, scale 0 to 10 (0 no effect, 10 complete control)
[6] = Rate 62 g/ha, headed Pre-emergence (flood test species), scale 0 to 10 (0 no effect, 10 complete control)
[7] = Rate 125 g/ha, Pre-emergence, flood test species, scale 0 to 10 where 0 is no effect and 10 is complete control
[8] = Rate 250 g/ha, Pre-emergence, flood-test species, scale 0 to 10, 0 is no effect, 10 is complete control
[9] = Rate 500 g/ha, Pre-emergence, flood test species, scale 0 to 10 (0 no effect, 10 complete control)
[10] = Rate 1000 g/ha, 0 to 100 scale where 0 is no effect and 100 is complete control
[11] = 0 to 100 scale where 0 is no effect and 100 is complete control
[12] = Rate 500 g/ha, 0 to 100 scale, 0 is no effect, 100 is complete control
[13] = Preemergence, Rate 62 g/ha, scale of 0 to 10 where 0 is no effect and 10 is complete control
[14] = Preemergence, Rate 250 g/ha, scale of 0 to 10 where 0 is no effect and 10 is complete control
[15] = Preemergence, Rate 500 g/ha, scale of 0 to 10 where 0 is no effect and 10 is complete control
[16] = Rate 62 g/ha, Postemergence, scale of 0 to 10 where 0 is no effect and 10 is complete control
[17] = Rate 125 g/ha, Postemergence, scale of 0 to 10 where 0 is no effect and 10 is complete control
[18] = Rate 125 g/ha, Preemergence, scale of 0 to 10 where 0 is no effect and 10 is complete control
[19] = Rate 250 g/ha, Postemergence, scale of 0 to 10 where 0 is no effect and 10 is complete control
[20] = Rate 500 g/ha, Postemergence, scale 0 to 10, 0 no effect, 10 complete control
[21] = Rate 125 g/ha, 0 to 100 scale (0 no effect, 100 complete control)
[22] = Rate 500 g/ha, 0 to 100 scale (0 no effect, 100 complete control)
[23] = Rate 31 g/ha, Pre-emergence section (flood test species), scale 0 to 10
[24] = Rate 125 g/ha, 0 to 100 scale, 0 is no effect, 100 is complete control
[25] = Preemergence, Rate 31 g/ha, visual rating, scale 0 to 10 (0 no effect, 10 complete control)
[26] = Rate 31 g/ha, Postemergence, scale 0 to 10
[27] = Rate 62 g/ha, Postemergence, scale 0 to 10, 0 no effect, 10 complete control

## CCN(C(=O)n1oc(=O)n(N(C)C)c1=O)C1CCCCC1 [Compound 274]
Wild oat
  Wild oat plant response rating (0 to 100 scale): 40
Wild oat; [3]
  Plant response rating, Wild oat: 50
Wild oat; [4]
  Plant response rating, Wild oat: 60
Green foxtail
  Green foxtail plant response rating (0 to 100 scale): 20
Green foxtail; [3]
  Plant response rating, Green foxtail: 30
Green foxtail; [4]
  Plant response rating, Green foxtail: 40
blackgrass
  Blackgrass plant response rating (0 to 100 scale): 0
blackgrass; [3]
  Plant response rating, Blackgrass: 30
blackgrass; [4]
  Plant response rating, Blackgrass: 65
bamyardgrass; [5]
  Barnyardgrass plant response rating: 0
bamyardgrass; [6]
  Barnyardgrass plant response rating: 0
bamyardgrass; [7]
  Barnyardgrass plant response rating: 0
bamyardgrass; [8]
  Barnyardgrass plant response rating: 0
bamyardgrass; [9]
  Barnyardgrass plant response rating: 0
bamyardgrass; Rate 2000 g/ha, Pre-emergence (as headed), scale 0 to 10, 0 no effect, 10 complete control
  Barnyardgrass plant response rating: 0
Winter wheat [1]; [10]
  Plant response rating, Wheat (winter): 60
Winter wheat [1]; [11]
  Wheat (winter) plant response rating: 30
Winter wheat [1]; [12]
  Plant response rating, Wheat (winter): 50
Winter barley
  Barley (winter) plant response rating (0 to 100 scale): 50
Winter barley; [3]
  Plant response rating, Barley (winter): 60
Winter barley; [4]
  Plant response rating, Barley (winter): 55
rice; [5]
  Rice plant response rating: 0
rice; [6]
  Rice plant response rating: 0
rice; [7]
  Rice plant response rating: 0
rice; [8]
  Rice plant response rating: 0
rice; [9]
  Rice plant response rating: 0
rice; Rate 2000 g/ha, Pre-emergence (as headed), scale 0 to 10
  Rice plant response rating: 0
bedstraw; [13]
  Bedstraw plant response rating: 0
bedstraw; [14]
  Bedstraw plant response rating: 0
bedstraw; [15]
  Plant response rating, Bedstraw: 0
bedstraw; [16]
  Bedstraw plant response rating: 0
bedstraw; [17]
  Bedstraw plant response rating: 0
bedstraw; [18]
  Bedstraw plant response rating: 0
bedstraw; [19]
  Plant response rating, Bedstraw: 0
bedstraw; [20]
  Bedstraw plant response rating: 0
Winter wheat [2]
  Wheat (winter) plant response rating (0 to 100 scale): 30
Winter wheat [2]; [3]
  Plant response rating, Wheat (winter): 50
Winter wheat [2]; [4]
  Plant response rating, Wheat (winter): 50
pigweed; [13]
  Redroot pigweed plant response rating: 0
pigweed; [14]
  Redroot pigweed plant response rating: 0
pigweed; [15]
  Plant response rating, Redroot pigweed: 0
pigweed; [17]
  Redroot pigweed plant response rating: 0
pigweed; [18]
  Redroot pigweed plant response rating: 0
pigweed; [19]
  Plant response rating, Redroot pigweed: 1
pigweed; [20]
  Redroot pigweed plant response rating: 1
Italian ryegrass
  I. Ryegrass plant response rating (0 to 100 scale): 20
Italian ryegrass; [3]
  Plant response rating, I. Ryegrass: 30
Italian ryegrass; [4]
  Plant response rating, I. Ryegrass: 50

## CC(Cl)=CCn1c(=O)on(C(=O)N(c2ccc(F)cc2)C(C)C)c1=O [Compound 285]
Wild oat; [21]
  Plant response rating, Wild oat: 10
Wild oat; [22]
  Plant response rating, Wild oat: 20
Wild oat; [4]
  Plant response rating, Wild oat: 40
Green foxtail; [21]
  Plant response rating, Green foxtail: 20
Green foxtail; [22]
  Plant response rating, Green foxtail: 60
Green foxtail; [4]
  Plant response rating, Green foxtail: 65
blackgrass; [21]
  Plant response rating, Blackgrass: 20
blackgrass; [22]
  Plant response rating, Blackgrass: 55
blackgrass; [4]
  Plant response rating, Blackgrass: 70
bamyardgrass; [23]
  Barnyardgrass plant response rating: 0
bamyardgrass; [6]
  Barnyardgrass plant response rating: 0
bamyardgrass; [7]
  Barnyardgrass plant response rating: 0
bamyardgrass; [8]
  Barnyardgrass plant response rating: 7
Winter wheat [1]; [24]
  Plant response rating, Wheat (winter): 20
Winter wheat [1]; [10]
  Plant response rating, Wheat (winter): 30
Winter wheat [1]; [11]
  Wheat (winter) plant response rating: 20
Winter wheat [1]; [12]
  Plant response rating, Wheat (winter): 40
Winter barley; [21]
  Plant response rating, Barley (winter): 0
Winter barley; [22]
  Plant response rating, Barley (winter): 10
Winter barley; [4]
  Plant response rating, Barley (winter): 20
rice; [23]
  Rice plant response rating: 0
rice; [6]
  Rice plant response rating: 0
rice; [7]
  Rice plant response rating: 0
rice; [8]
  Rice plant response rating: 0
bedstraw; [25]
  Bedstraw plant response rating: 0
bedstraw; [13]
  Bedstraw plant response rating: 0
bedstraw; [14]
  Bedstraw plant response rating: 8
bedstraw; [26]
  Bedstraw plant response rating: 0
bedstraw; [27]
  Bedstraw plant response rating: 0
bedstraw; [17]
  Bedstraw plant response rating: 5
bedstraw; [18]
  Bedstraw plant response rating: 0
bedstraw; [19]
  Plant response rating, Bedstraw: 7
Winter wheat [2]; [21]
  Plant response rating, Wheat (winter): 30
Winter wheat [2]; [22]
  Plant response rating, Wheat (winter): 25
Winter wheat [2]; [4]
  Plant response rating, Wheat (winter): 50
pigweed; [25]
  Redroot pigweed plant response rating: 0
pigweed; [13]
  Redroot pigweed plant response rating: 0
pigweed; [14]
  Redroot pigweed plant response rating: 5
pigweed; [26]
  Redroot pigweed plant response rating: 0
pigweed; [27]
  Redroot pigweed plant response rating: 0
pigweed; [17]
  Redroot pigweed plant response rating: 0
pigweed; [18]
  Redroot pigweed plant response rating: 2
pigweed; [19]
  Plant response rating, Redroot pigweed: 0
Italian ryegrass; [21]
  Plant response rating, I. Ryegrass: 20
Italian ryegrass; [22]
  Plant response rating, I. Ryegrass: 70
Italian ryegrass; [4]
  Plant response rating, I. Ryegrass: 70

## CC(C)N(C(=O)n1oc(=O)n(CC(C)(C)C)c1=O)c1ccccc1 [Compound 276]
Wild oat; [21]
  Plant response rating, Wild oat: 50
Wild oat
  Wild oat plant response rating (0 to 100 scale): 60
Wild oat; [3]
  Plant response rating, Wild oat: 60
Green foxtail; [21]
  Plant response rating, Green foxtail: 60
Green foxtail
  Green foxtail plant response rating (0 to 100 scale): 100
Green foxtail; [3]
  Plant response rating, Green foxtail: 98
blackgrass; [21]
  Plant response rating, Blackgrass: 30
blackgrass
  Blackgrass plant response rating (0 to 100 scale): 50
blackgrass; [3]
  Plant response rating, Blackgrass: 50
bamyardgrass; [6]
  Barnyardgrass plant response rating: 1
bamyardgrass; [7]
  Barnyardgrass plant response rating: 6
bamyardgrass; [8]
  Barnyardgrass plant response rating: 8
bamyardgrass; [9]
  Barnyardgrass plant response rating: 8
Winter wheat [1]; [24]
  Plant response rating, Wheat (winter): 10
Winter wheat [1]; [11]
  Wheat (winter) plant response rating: 10
Winter wheat [1]; [12]
  Plant response rating, Wheat (winter): 20
Winter barley; [21]
  Plant response rating, Barley (winter): 50
Winter barley
  Barley (winter) plant response rating (0 to 100 scale): 30
Winter barley; [3]
  Plant response rating, Barley (winter): 50
rice; [6]
  Rice plant response rating: 0
rice; [7]
  Rice plant response rating: 0
rice; [8]
  Rice plant response rating: 0
rice; [9]
  Rice plant response rating: 0
bedstraw; [13]
  Bedstraw plant response rating: 0
bedstraw; [14]
  Bedstraw plant response rating: 0
bedstraw; [15]
  Plant response rating, Bedstraw: 0
bedstraw; [16]
  Bedstraw plant response rating: 0
bedstraw; [17]
  Bedstraw plant response rating: 0
bedstraw; [18]
  Bedstraw plant response rating: 0
bedstraw; [19]
  Plant response rating, Bedstraw: 3
bedstraw; [20]
  Bedstraw plant response rating: 3
Winter wheat [2]; [21]
  Plant response rating, Wheat (winter): 20
Winter wheat [2]
  Wheat (winter) plant response rating (0 to 100 scale): 30
Winter wheat [2]; [3]
  Plant response rating, Wheat (winter): 50
pigweed; [13]
  Redroot pigweed plant response rating: 0
pigweed; [14]
  Redroot pigweed plant response rating: 2
pigweed; [15]
  Plant response rating, Redroot pigweed: 4
pigweed; [17]
  Redroot pigweed plant response rating: 0
pigweed; [18]
  Redroot pigweed plant response rating: 0
pigweed; [19]
  Plant response rating, Redroot pigweed: 1
pigweed; [20]
  Redroot pigweed plant response rating: 2
Italian ryegrass; [21]
  Plant response rating, I. Ryegrass: 30
Italian ryegrass
  I. Ryegrass plant response rating (0 to 100 scale): 60
Italian ryegrass; [3]
  Plant response rating, I. Ryegrass: 50
